Measurements as given in US20020051978A1, “Methods and compositions for the identification, assessment, prevention and therapy of human cancers” (priority 2000, published 2002).
Read-outs that look alike come from different tables or passages of the source.

Key:
[1] = tested on: 60 cancer cell lines (NCI 60 cancer cell line series); experiment: NCI-DTP in vitro cancer screen, sulforhodamine B (SRB) growth inhibition, 48 hour exposure; format: cell-based, human; parameters: key to sensitivity class Ovarian OVCAR-8 CL6005 / sensitivity class Ovarian SK-OV-3 CL6011 / sensitivity class Prostate DU-145 CL11003 / sensitivity class NSCLC NCI-H522 CL1003 / sensitivity class Ovarian IGROV1 CL6010 / sensitivity class Ovarian OVCAR-4 CL6002 / sensitivity class Prostate PC-3(I) CL11001 / sensitivity class Renal A498 CL9013 / sensitivity class Renal SN12C CL9008: sensitivity class: 1 = Low, 2 = Medium, 3 = High
Summary of the method: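 Sixty NCI-DTP cancer lines plated at line-specific densities, dosed on day 1 in duplicate with 5 concentrations at ten-fold intervals. After 48 h exposure, cell mass read by SRB staining; GI50 (50% growth inhibition) taken from dose-response curves and expressed as -log GI50.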

[2] = tested on: 60 cancer cell lines (NCI 60 cancer cell line series); settings: cited from earlier work

Compound: COc1cc([C@@H]2c3cc4c(cc3[C@@H](O[C@@H]3O[C@@H]5CO[C@@H](c6cccs6)O[C@H]5[C@H](O)[C@H]3O)[C@H]3COC(=O)[C@H]23)OCO4)cc(OC)c1O [Teniposide]
- classification of cell line as Low(1), Medium(2) or High(3) sensitivity to compound ([1]; Breast BT-549 (CL5013)): 2
- classification of cell line as Low(1), Medium(2) or High(3) sensitivity to compound ([1]; Breast HS-578T CL5006): 2
- classification of cell line as Low(1), Medium(2) or High(3) sensitivity to compound ([1]; Breast MCF7(I) (CL5001)): 3
- classification of cell line as Low(1), Medium(2) or High(3) sensitivity to compound ([1]; Breast MCF7/ADRr (CL5002)): 1
- classification of cell line as Low(1), Medium(2) or High(3) sensitivity to compound ([1]; Breast MDA-MB-231 CL5005): 2
- classification of cell line as Low(1), Medium(2) or High(3) sensitivity to compound ([1]; Breast MDA-MB-435 (CL5011)): 2
- classification of cell line as Low(1), Medium(2) or High(3) sensitivity to compound ([1]; Breast MDA-N CL5012): 2
- classification of cell line as Low(1), Medium(2) or High(3) sensitivity to compound ([1]; Breast T-47D (CL5014)): 2
- classification of cell line as Low(1), Medium(2) or High(3) sensitivity to compound ([1]; CNS SF-268 CL12014): 2
- classification of cell line as Low(1), Medium(2) or High(3) sensitivity to compound ([1]; CNS SF-295 CL12015): 2
- classification of cell line as Low(1), Medium(2) or High(3) sensitivity to compound ([1]; CNS SF-539 CL12016): 2
- classification of cell line as Low(1), Medium(2) or High(3) sensitivity to compound ([1]; CNS SNB-19 (CL12002)): 2
- classification of cell line as Low(1), Medium(2) or High(3) sensitivity to compound ([1]; CNS SNB-75(I) CL12005): 2
- classification of cell line as Low(1), Medium(2) or High(3) sensitivity to compound ([1]; CNS U251(I) CL12009): 2
- classification of cell line as Low(1), Medium(2) or High(3) sensitivity to compound ([1]; Colon COLO-250 CL4010): 2
- classification of cell line as Low(1), Medium(2) or High(3) sensitivity to compound ([1]; Colon HCC-2998 (CL4002)): 2
- classification of cell line as Low(1), Medium(2) or High(3) sensitivity to compound ([1]; Colon HCT-15 CL4015): 2
- classification of cell line as Low(1), Medium(2) or High(3) sensitivity to compound ([1]; Colon HCT-116 (CL4003)): 2
- classification of cell line as Low(1), Medium(2) or High(3) sensitivity to compound ([1]; Colon HT29(I) CL4001): 2
- classification of cell line as Low(1), Medium(2) or High(3) sensitivity to compound ([1]; Colon KM12 (CL4017)): 2
- classification of cell line as Low(1), Medium(2) or High(3) sensitivity to compound ([1]; Colon SW-620 (CL4009)): 2
- classification of cell line as Low(1), Medium(2) or High(3) sensitivity to compound ([1]; Leukemia CCRF-CEM(I) (CL7003)): 3
- classification of cell line as Low(1), Medium(2) or High(3) sensitivity to compound ([1]; Leukemia HL-60(I) (CL7008)): 3
- classification of cell line as Low(1), Medium(2) or High(3) sensitivity to compound ([1]; Leukemia K562(I) CL7005): 2
- classification of cell line as Low(1), Medium(2) or High(3) sensitivity to compound ([1]; Leukemia MOLT-4 (CL7006)): 3
- classification of cell line as Low(1), Medium(2) or High(3) sensitivity to compound ([1]; Leukemia RPMI-8226(I) (CL7010)): 2
- classification of cell line as Low(1), Medium(2) or High(3) sensitivity to compound ([1]; Leukemia SR CL7019): 3
- classification of cell line as Low(1), Medium(2) or High(3) sensitivity to compound ([1]; Melanoma LOX IMVI CL10001): 2
- classification of cell line as Low(1), Medium(2) or High(3) sensitivity to compound ([1]; Melanoma M14 (CL10014)): 2
- classification of cell line as Low(1), Medium(2) or High(3) sensitivity to compound ([1]; Melanoma MALME-3M CL10002): 2
- sensitivity class NSCLC NCI-H23(I) CL1001 ([1]; cell line NSCLC NCI-H23(I), CL1001): 2
- sensitivity class NSCLC NCI-H332M CL1017 ([1]; cell line NSCLC NCI-H332M, CL1017): 1
- sensitivity class NSCLC NCI-H460 CL1021 ([1]; cell line NSCLC NCI-H460, CL1021): 3
- sensitivity class NSCLC NCI-H522 CL1003 ([1]; cell line NSCLC NCI-H522, CL1003): 2
- sensitivity class Ovarian IGROV1 CL6010 ([1]; cell line Ovarian IGROV1, CL6010): 2
- sensitivity class Ovarian OVCAR-3 CL6001 ([1]; cell line Ovarian OVCAR-3, CL6001): 2
- sensitivity class Ovarian OVCAR-4 CL6002 ([1]; cell line Ovarian OVCAR-4, CL6002): 1
- sensitivity class Ovarian OVCAR-5 CL6003 ([1]; cell line Ovarian OVCAR-5, CL6003): 2
- sensitivity class Ovarian OVCAR-8 CL6005 ([1]; cell line Ovarian OVCAR-8, CL6005): 2
- sensitivity class Ovarian SK-OV-3 CL6011 ([1]; cell line Ovarian SK-OV-3, CL6011): 2
- sensitivity class Prostate DU-145 CL11003 ([1]; cell line Prostate DU-145, CL11003): 2
- sensitivity class Prostate PC-3(I) CL11001 ([1]; cell line Prostate PC-3(I), CL11001): 2
- sensitivity class Renal 786-O CL9018 ([1]; cell line Renal 786-O, CL9018): 2
- sensitivity class Renal A498 CL9013 ([1]; cell line Renal A498, CL9013): 2
- sensitivity class Renal ACHN CL9023 ([1]; cell line Renal ACHN, CL9023): 2
- sensitivity class Renal CAKI-1 CL9015 ([1]; cell line Renal CAKI-1, CL9015): 3
- sensitivity class Renal RXF-393 CL9016 ([1]; cell line Renal RXF-393, CL9016): 2
- sensitivity class Renal SN12C CL9008 ([1]; cell line Renal SN12C, CL9008): 2
- sensitivity class Renal TK10 CL9024 ([1]; cell line Renal TK10, CL9024): 2
- sensitivity class Renal UO-31 CL9004 ([1]; cell line Renal UO-31, CL9004): 1
- -Log (GI50) ([2]; Breast BT-549 (CL5013)): 6.2
- -Log (GI50) ([2]; Breast HS-578T CL5006): 6.4
- -Log (GI50) ([2]; Breast MCF7(I) (CL5001)): 7.4
- -Log (GI50) ([2]; Breast MCF7/ADRr (CL5002)): 4.6
- -Log (GI50) ([2]; Breast MDA-MB-231 CL5005): 6.0
- -Log (GI50) ([2]; Breast MDA-MB-435 (CL5011)): 5.9
- -Log (GI50) ([2]; Breast MDA-N CL5012): 6.0
- -Log (GI50) ([2]; Breast T-47D (CL5014)): 6.8
- -Log (GI50) ([2]; CNS SF-268 CL12014): 6.3
- -Log (GI50) ([2]; CNS SF-295 CL12015): 6.8
- -Log (GI50) ([2]; CNS SF-539 CL12016): 6.7
- -Log (GI50) ([2]; CNS SNB-19 (CL12002)): 6.5
- -Log (GI50) ([2]; CNS SNB-75(I) CL12005): 6.3
- -Log (GI50) ([2]; CNS U251(I) CL12009): 6.8
- -Log (GI50) ([2]; Colon COLO-250 CL4010): 6.3
- -Log (GI50) ([2]; Colon HCC-2998 (CL4002)): 6.2
- -Log (GI50) ([2]; Colon HCT-15 CL4015): 5.8
- -Log (GI50) ([2]; Colon HCT-116 (CL4003)): 6.1
- -Log (GI50) ([2]; Colon HT29(I) CL4001): 5.8
- -Log (GI50) ([2]; Colon KM12 (CL4017)): 6.1
- -Log (GI50) ([2]; Colon SW-620 (CL4009)): 6.6
- -Log (GI50) ([2]; Leukemia CCRF-CEM(I) (CL7003)): 7.3
- -Log (GI50) ([2]; Leukemia HL-60(I) (CL7008)): 7.3
- -Log (GI50) ([2]; Leukemia K562(I) CL7005): 6.1
- -Log (GI50) ([2]; Leukemia MOLT-4 (CL7006)): 7.8
- -Log (GI50) ([2]; Leukemia RPMI-8226(I) (CL7010)): 6.8
- -Log (GI50) ([2]; Leukemia SR CL7019): 7.9
- -Log (GI50) ([2]; Melanoma LOX IMVI CL10001): 6.7
- -Log (GI50) ([2]; Melanoma M14 (CL10014)): 6.2
- -Log (GI50) ([2]; Melanoma MALME-3M CL10002): 6.2
- -Log (GI50) ([2]; NCSLC NCI-H522 CL1003): 6.3
- -Log (GI50) ([2]; NSCLC NCI-H23(I) CL1001): 6.4
- -Log (GI50) ([2]; NSCLC NCI-H332M CL1017): 5.5
- -Log (GI50) ([2]; NSCLC NCI-H460 CL1021): 7.8
- -Log (GI50) ([2]; Ovarian IGROV1 CL6010): 5.8
- -Log (GI50) ([2]; Ovarian OVCAR-3 CL6001): 5.8
- -Log (GI50) ([2]; Ovarian OVCAR-4 CL6002): 5.3
- -Log (GI50) ([2]; Ovarian OVCAR-5 CL6003): 5.8
- -Log (GI50) ([2]; Ovarian OVCAR-8 CL6005): 6.3
- -Log (GI50) ([2]; Ovarian SK-OV-3 CL6011): 6.4
- -Log (GI50) ([2]; Prostate DU-145 CL11003): 6.5
- -Log (GI50) ([2]; Prostate PC-3(I) CL11001): 6.0
- -Log (GI50) ([2]; Renal 786-O CL9018): 6.5
- -Log (GI50) ([2]; Renal A498 CL9013): 6.4
- -Log (GI50) ([2]; Renal ACHN CL9023): 6.8
- -Log (GI50) ([2]; Renal CAKI-1 CL9015): 7.1
- -Log (GI50) ([2]; Renal RXF-393 CL9016): 6.3
- -Log (GI50) ([2]; Renal SN12C CL9008): 6.5
- -Log (GI50) ([2]; Renal TK10 CL9024): 5.8
- -Log (GI50) ([2]; Renal UO-31 CL9004): 5.4
